This note sets out measurements from patent publication US9617269B2.

The assay deals with phosphodiesterase IX (Homo sapiens (Human), UniProt O76083). Kind of assay: Inhibition activity to the phosphodiesterase IX. The format is biochemical. The conditions noted are these: concentration of the inhibitor when the inhibition rate reaches 50%.
Sequence of phosphodiesterase IX (O76083 whole entry): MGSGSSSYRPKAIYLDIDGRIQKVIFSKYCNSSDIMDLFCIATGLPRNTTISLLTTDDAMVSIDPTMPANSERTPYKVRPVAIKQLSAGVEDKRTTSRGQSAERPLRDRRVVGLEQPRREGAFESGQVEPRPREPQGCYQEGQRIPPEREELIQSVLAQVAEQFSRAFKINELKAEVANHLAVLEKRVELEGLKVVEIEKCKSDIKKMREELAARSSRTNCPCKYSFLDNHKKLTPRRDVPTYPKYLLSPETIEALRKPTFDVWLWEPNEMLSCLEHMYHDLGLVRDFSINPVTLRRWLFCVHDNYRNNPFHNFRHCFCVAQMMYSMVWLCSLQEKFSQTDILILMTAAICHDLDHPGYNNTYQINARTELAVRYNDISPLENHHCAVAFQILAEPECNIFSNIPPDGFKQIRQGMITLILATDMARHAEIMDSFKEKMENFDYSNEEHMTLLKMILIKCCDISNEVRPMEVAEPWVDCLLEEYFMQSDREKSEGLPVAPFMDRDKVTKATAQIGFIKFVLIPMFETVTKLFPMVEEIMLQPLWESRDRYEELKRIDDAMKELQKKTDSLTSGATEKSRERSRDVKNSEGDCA

Protocol: Inhibition activities of all the N-substituted pyrazolo [3,4-d] pyrimidine ketone compounds according to the present invention to the phosphodiesterase IX are tested.

Turning to `COc1ccc(NC(=O)C(C)Nc2nc3c(cnn3-c3ccccc3Cl)c(=O)[nH]2)cc1` (stereo not shown) [WYQ-94-D], half-maximal inhibition (IC50) required 6 nM.

The term IC50 denotes the point on the concentration scale where inhibition reaches its midpoint. Read a low IC50 as greater potency.
